What was measured:
[1] = molecular target: T1, CDK2/CyclinE1 (Homo sapiens, UniProt P24941); assay: Assay for inhibition of CDK2/CyclinE1 (Caliper microfluidic kinase assay); type: biochemical; settings: CDK2/CyclinE1, 100 μM ATP; read-out: CDK2 IC50
T1 construct: purchased SignalChem C29-18G
Summary of the method: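 IC50 came from 4-parameter fits of substrate-to-product conversion, separated on a Caliper chip after an EDTA stop. Reactions ran 3 hours at room temperature with 100 μM ATP, 5 μM fluorescent FL-18 peptide and 5 nM enzyme in 100 mM HEPES pH 7.5, 10 mM MgCl2.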

[2] = tested on: phosphorylation of Retinoblastoma Protein (pRb Ser807/811 or Ser780) in T47D cells; assay: Inhibition of phosphorylation of retinoblastoma protein (pRb) in T47D cell (ELISA); type: cell-based, human; settings: Homo sapiens, T47D, read-out: Phospho T47D Ser807 IC50, pRb Ser807 phosphorylation, T47D cells
Method: T47D breast cancer cells from American Type Culture Collection (ATCC, HTB-133) were plated at 40,000 cells/well in 96-well plates, and were incubated in RPMI 1640 medium (Gibco, 31800105) with 10% Fetal Bovine Serum (FBS, Biowest, FB-1058). Cells were then allowed to adhere overnight at 37° C., 5% CO2. The following day, compounds were titrated in a 3-fold dilution scheme, and the highest compound concentration tested was […]. After 24 hours incubation with compounds, cells were lysed in ice-cold lysis buffer containing phosphatase inhibitor cocktail and 1 mM PMSF. Cell lysates (50 μL/well) were then transferred to ELISA plates (pRb Ser807/811 ELISA kit, Cell Signaling, 13152 or pRb Ser780 ELISA kit, Cell Signaling, 13016)). Plates were incubated overnight at 4° C., with constant slow speed shaking. After incubation, plates were washed following manufacturer's recommendations, and then 100 μL reconstituted detection antibody was added to each well and incubated for 1 hour at 37° C. After incubation, plates were washed, and then 100 μL reconstituted HRP-linked secondary antibody was added to each well and incubated for 30 mins at 37° C. After incubation, plates were washed. Then, 100 μL TMB substrate was added to each well and incubated for 10 min at 37° C. or 30 min at 25° C. Finally, 100 μL of STOP solution was added to each well and mixed gently for a few seconds. Plates were read on the Envision plate reader (PerkinElmer, 2104-0010) using the 96-well […] mode. IC50 values were calculated using 4 parameter sigmoidal dose-response model of Xlfit5/GraphPad Prism 5 software.

[3] = molecular target: T2, CDK6/CyclinD3 (Homo sapiens, UniProt Q00534); assay: Assay for inhibition of CDK6/CyclinD3 (Caliper microfluidic kinase assay); type: biochemical; settings: CDK6/CyclinD3, 300 μM ATP
T2 construct: purchased Carna 04-107
T2 sequence (Q00534 whole entry): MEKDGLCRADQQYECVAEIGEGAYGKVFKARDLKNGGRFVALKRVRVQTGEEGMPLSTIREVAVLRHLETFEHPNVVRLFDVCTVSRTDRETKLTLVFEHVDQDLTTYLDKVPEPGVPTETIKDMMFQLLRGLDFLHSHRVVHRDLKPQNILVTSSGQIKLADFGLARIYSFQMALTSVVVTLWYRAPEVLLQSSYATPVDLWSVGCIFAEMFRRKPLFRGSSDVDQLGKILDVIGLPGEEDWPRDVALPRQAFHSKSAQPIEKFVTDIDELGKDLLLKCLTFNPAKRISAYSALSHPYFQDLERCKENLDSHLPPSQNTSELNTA
T2 sequence (P30281 whole entry partner): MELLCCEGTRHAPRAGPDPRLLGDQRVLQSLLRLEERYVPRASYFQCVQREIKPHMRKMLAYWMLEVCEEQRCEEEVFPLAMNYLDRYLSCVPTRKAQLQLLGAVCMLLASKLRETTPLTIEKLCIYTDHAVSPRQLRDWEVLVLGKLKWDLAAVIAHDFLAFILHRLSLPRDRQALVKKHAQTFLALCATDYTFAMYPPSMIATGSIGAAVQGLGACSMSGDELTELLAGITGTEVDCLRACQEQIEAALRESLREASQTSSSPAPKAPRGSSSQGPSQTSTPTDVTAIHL
Summary of the method: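 IC50s came from four-parameter dose-response fits of microfluidic substrate/product separation data. Reactions held 2 nM CDK6/CyclinD3, 300 μM ATP and 1 μM 5-FAM peptide FL-34 in pH 7.5 HEPES/MgCl2 buffer, ran 3 hours at room temperature, then were quenched with EDTA.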

[4] = tested on: T47D breast cancer cells; assay: Anti-proliferation assay in T47D cell (Cyquant, day 6); type: cell-based, human; settings: Homo sapiens, T47D, anti-proliferation, T47D cells; read-out: T47D IC50
Summary of the method: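 A ten-point, 3-fold compound series (10 μM down to 0.51 nM) was applied to overnight-settled cells in 10% FBS RPMI 1640, and DNA content was read by CyQuant fluorescence 6 days later. An untreated plate read before dosing served as baseline for subtraction before IC50 fitting.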

[5] = molecular target: T3, CDK4/CyclinD1 (Homo sapiens, UniProt P11802); assay: Assay for inhibition of CDK4/CyclinD1 (Caliper microfluidic kinase assay); type: biochemical; settings: CDK4/CyclinD1, 200 μM ATP
T3 construct: purchased Thermofisher PR8064A
T3 sequence (P11802 whole entry): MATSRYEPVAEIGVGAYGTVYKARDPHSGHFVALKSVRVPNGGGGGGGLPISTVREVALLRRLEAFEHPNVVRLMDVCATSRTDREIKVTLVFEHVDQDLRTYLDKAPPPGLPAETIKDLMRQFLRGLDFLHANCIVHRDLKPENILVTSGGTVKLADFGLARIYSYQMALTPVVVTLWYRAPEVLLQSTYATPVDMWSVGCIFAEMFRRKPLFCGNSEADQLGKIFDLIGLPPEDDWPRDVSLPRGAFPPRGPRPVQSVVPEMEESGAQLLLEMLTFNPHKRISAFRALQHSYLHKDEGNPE
T3 sequence (P24385 whole entry partner): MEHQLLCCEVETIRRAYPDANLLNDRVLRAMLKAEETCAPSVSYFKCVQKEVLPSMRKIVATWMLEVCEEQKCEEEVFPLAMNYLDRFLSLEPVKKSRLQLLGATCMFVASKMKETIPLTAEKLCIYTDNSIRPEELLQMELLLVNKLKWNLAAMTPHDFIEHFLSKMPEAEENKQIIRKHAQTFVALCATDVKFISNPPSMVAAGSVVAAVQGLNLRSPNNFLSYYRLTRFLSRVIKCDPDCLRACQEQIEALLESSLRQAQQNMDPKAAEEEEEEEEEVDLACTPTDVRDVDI
Summary of the method: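 IC50 was obtained by 4-parameter sigmoidal fitting after 1 nM CDK4/CyclinD1, 200 μM ATP and 1 μM FL-34 substrate reacted for 3 h at room temperature (pH 7.5 HEPES, 10 mM MgCl2). After EDTA quench, substrate and product were separated and detected on a Caliper microfluidic chip.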

SMILES	IC50 [1] [nM]	IC50 [2] [nM]	IC50 [3] [nM]	IC50 [4] [nM]	IC50 [5] [nM]
CC(C)c1cnn2ccc(-c3nc(Nc4ccc(N5CCOCC5=O)c(F)c4)ncc3F)cc12 [compound 26]	< 10	< 100	10 to 100	100 to 500	< 10
CC(C)c1cnn2ccc(-c3nc(Nc4ccc(S(N)(=O)=O)cc4)ncc3F)cc12 [compound 27]	< 10	100 to 500	100 to 1000	< 100	10 to 100
CC(C)c1cnn2ccc(-c3ccnc(Nc4ccc(N5CCOCC5=O)cn4)n3)cc12 [compound 28]	< 10	< 100	10 to 100	< 100	< 10
CC(C)c1cnn2ccc(-c3ccnc(Nc4ccc(N5CCCNCC5=O)cn4)n3)cc12 [compound 30]	10 to 100	< 100	10 to 100	100 to 500	< 10
CC(C)c1cnn2cc(-c3ccnc(Nc4ccc(N5CCNCCC5=O)cn4)n3)ccc12 [compound 31]	10 to 100	< 100	10 to 100	< 100	< 10
CC(C)c1cnn2ccc(-c3nc(Nc4ccc(N5CCCNCC5=O)cn4)ncc3F)cc12 [compound 33]	10 to 100	< 100	10 to 100	< 100	< 10
CC(C)c1cnn2ccc(-c3nc(Nc4ccc(N5CCNCCC5=O)cn4)ncc3F)cc12 [compound 34]	10 to 100	< 100	10 to 100	< 100	< 10
CC(C)c1cnn2ccc(-c3ccnc(Nc4ccc(N5CCNCC5=O)cn4)n3)cc12 [compound 37]	< 10	< 100	10 to 100	< 100	< 10
CC(C)c1cnn2ccc(-c3ccnc(Nc4ccc(N5CCN(C6CCNCC6)CC5=O)cn4)n3)cc12 [compound 41]	10 to 100	< 100	10 to 100	< 100	< 10
CC(C)c1cnn2ccc(-c3nc(Nc4ccc(N5CCN(C6CNC6)CCC5=O)cn4)ncc3F)cc12 [compound 42]	10 to 100	< 100	10 to 100	< 100	< 10
CCN1CCC(Cn2ccc(Nc3ncc(F)c(-c4ccn5ncc(C(C)C)c5c4)n3)cc2=O)CC1 [compound 44]	100 to 1000	500 to 1000	10 to 100	> 1000	< 10
CCN1CCC(COc2cc(Nc3ncc(F)c(-c4ccn5ncc(C(C)C)c5c4)n3)ccn2)CC1 [compound 45]	< 10	500 to 1000	10 to 100	100 to 500	< 10
CC(C)c1cnn2ccc(-c3nc(Nc4ccc(N5CCN(C)CCC5=O)cn4)ncc3F)cc12 [compound 46]	10 to 100	< 100	10 to 100	< 100	< 10
CCN1CCC(=O)N(c2ccc(Nc3ncc(F)c(-c4ccn5ncc(C(C)C)c5c4)n3)nc2)CC1 [compound 47]	10 to 100	< 100	10 to 100	< 100	< 10
CCN1CCN(c2ccc(Nc3ncc(F)c(-c4ccn5ncc(C(C)C)c5c4)n3)nc2)C(=O)C1 [compound 48]	10 to 100	< 100	10 to 100	< 100	< 10
